In one assay the target is T1, KDM5B (PLU-1) (Homo sapiens, UniProt Q9UGL1).
T1 sequence (Q9UGL1 1-809): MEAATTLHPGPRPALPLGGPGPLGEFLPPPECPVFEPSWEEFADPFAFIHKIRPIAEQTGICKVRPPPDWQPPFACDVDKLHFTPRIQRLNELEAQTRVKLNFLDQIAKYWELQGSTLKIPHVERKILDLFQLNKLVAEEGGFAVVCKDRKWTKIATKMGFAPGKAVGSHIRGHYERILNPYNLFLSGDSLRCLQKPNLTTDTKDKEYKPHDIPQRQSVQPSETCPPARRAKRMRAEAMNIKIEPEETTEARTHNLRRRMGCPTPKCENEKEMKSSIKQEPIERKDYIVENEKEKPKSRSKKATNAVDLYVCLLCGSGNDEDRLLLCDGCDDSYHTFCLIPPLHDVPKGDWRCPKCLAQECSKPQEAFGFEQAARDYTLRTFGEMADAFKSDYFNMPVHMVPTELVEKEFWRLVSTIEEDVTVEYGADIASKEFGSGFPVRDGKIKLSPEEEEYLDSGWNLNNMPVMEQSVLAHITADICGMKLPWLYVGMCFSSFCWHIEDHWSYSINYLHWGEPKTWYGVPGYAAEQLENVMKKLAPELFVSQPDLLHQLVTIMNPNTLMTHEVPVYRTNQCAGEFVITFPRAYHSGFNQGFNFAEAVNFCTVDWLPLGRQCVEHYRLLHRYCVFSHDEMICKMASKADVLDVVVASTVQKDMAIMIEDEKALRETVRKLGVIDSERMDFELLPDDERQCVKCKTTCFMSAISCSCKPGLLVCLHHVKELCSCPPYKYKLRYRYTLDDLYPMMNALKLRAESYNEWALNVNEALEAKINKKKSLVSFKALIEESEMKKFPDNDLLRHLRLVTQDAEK
The assay can be described thus: Histone lysine demethylase AlphaLISA assay, KDM5B. It counts as biochemical. The conditions noted are these: read-out: KDM5B HDME Inhibition IC50. The gist of the method:
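Biotinylated methylated H3 peptides (K9, K4, K27 or K36 marks) served as substrate, with 25 μM L-Asc and 10 μM α-KG. Enzymes were preincubated 10 min, then exposed to compounds (3% DMSO solutions) 10 min; product detected by AlphaLISA acceptor and streptavidin donor beads at room temperature in dark.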
On the technique in general: In Alpha technology, singlet oxygen from a donor bead excites a nearby acceptor bead.

The target of a further assay is T2, KDM3B (JMJD1B) (Homo sapiens, UniProt Q7LBC6).
T2 construct: 842-1761; host or cells: Bac (baculovirus system)
T2 sequence (Q7LBC6 842-1761): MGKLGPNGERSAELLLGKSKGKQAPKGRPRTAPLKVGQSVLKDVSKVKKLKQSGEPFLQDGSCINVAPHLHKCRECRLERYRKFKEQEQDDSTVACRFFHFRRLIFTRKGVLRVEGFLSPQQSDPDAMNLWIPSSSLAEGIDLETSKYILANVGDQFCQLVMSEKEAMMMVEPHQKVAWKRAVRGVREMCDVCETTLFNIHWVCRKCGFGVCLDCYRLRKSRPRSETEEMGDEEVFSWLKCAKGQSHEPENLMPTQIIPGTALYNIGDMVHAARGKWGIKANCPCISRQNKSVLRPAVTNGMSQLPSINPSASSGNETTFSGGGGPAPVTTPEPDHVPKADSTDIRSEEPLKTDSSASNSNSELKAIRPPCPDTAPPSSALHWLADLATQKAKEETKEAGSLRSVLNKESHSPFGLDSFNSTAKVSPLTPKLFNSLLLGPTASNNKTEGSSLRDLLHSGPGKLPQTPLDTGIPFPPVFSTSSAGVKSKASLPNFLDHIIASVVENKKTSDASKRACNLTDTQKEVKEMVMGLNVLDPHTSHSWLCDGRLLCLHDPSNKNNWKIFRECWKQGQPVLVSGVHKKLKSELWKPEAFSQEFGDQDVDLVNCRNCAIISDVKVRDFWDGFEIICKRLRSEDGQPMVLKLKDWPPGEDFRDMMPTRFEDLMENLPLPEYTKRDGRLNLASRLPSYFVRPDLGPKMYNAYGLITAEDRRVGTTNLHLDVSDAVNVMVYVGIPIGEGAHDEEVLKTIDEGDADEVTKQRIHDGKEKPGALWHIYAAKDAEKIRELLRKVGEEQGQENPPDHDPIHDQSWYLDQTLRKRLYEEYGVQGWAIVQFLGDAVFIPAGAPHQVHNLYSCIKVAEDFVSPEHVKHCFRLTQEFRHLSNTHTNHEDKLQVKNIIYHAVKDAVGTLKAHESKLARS
In words: Histone lysine demethylase AlphaLISA assay, KDM3B. It counts as biochemical. The note with it: read-out: KDM3B HDME Inhibition IC50. Here is the method:
Assays are performed analogously to the protocol described by PerkinElmer (Roy et al. PerkinElmer Technical Note: AlphaLISA #12, April 2011)
Enzymes are dissolved in enzyme buffer and incubated for 10 min before being added to 3% DMSO solutions of compounds in enzyme buffer. Incubated for another 10 minutes, before substrate solution is added and the reaction mixture is incubated at room temperature. 10 μL acceptor beads, suspended in Epigenetic Buffer (Perkin Elmer AL008) from stock, are added and the suspension is incubated in the dark at room temperature, before a suspension of streptavidin donor beads (Perkin Elmer 6760002) in Epigenetic Buffer is added. After incubation at room temperature in the dark the plates are read. […]
BK9M2: Biotin-ARTKQTAR(KMe2)STGGKAPRKQ-NH2 (AnaSpec 64359) […]
Substrate Solution: Substrate, 25 μM L-Asc, and 10 μM α-KG in Buffer A.

Some results are limits rather than exact numbers.

A word on the IC50: it is the concentration that inhibits the measured activity by half.

As for `CN1CCN(C(=O)CNCc2cc(C=O)ccn2)CC1` [Compound 103, 2-({[2-(4-methylpiperazin-1-yl)-2-oxoethyl]-amino}methyl)-pyridine-4-carbaldehyde], the concentration for half-maximal inhibition (IC50) on KDM5B (PLU-1) is 250 to 2500 nM; on KDM3B (JMJD1B) it was greater than 2500 nM.

In the case of `CN(C)CCCCCNCc1cc(/C=N/C2CC2)ccn1` [Compound 47, N-{[2-({[5-(dimethylamino)-pentyl]amino}-methyl)pyridin-4-yl]methylidene}-cyclopropanamine], the half-inhibitory concentration (IC50) was less than 250 nM on KDM5B (PLU-1) and greater than 2500 nM at KDM3B (JMJD1B).

Take `CN(C)CCCCNCc1cc(CNC2CC2)ccn1` [Compound 10, N-{[2-({[4-(dimethylamino)butyl]-amino}methyl)pyridin-4-yl]methyl}-cyclopropanamine]: the IC50 at KDM5B (PLU-1) and on KDM3B (JMJD1B) was greater than 2500 nM throughout.

In the case of `CCCNCc1cc(CNC2CC2)ccn1` [Compound 12, N-({2-[(propylamino)methyl]-pyridin-4-yl}methyl)-cyclopropanamine], the results for the concentration for half-maximal inhibition (IC50) at KDM5B (PLU-1) and on KDM3B (JMJD1B) were 250 to 2500 nM and greater than 2500 nM, respectively.

With `O=C(CNCc1cc(/C=N/C2CC2)ccn1)N1CCC[C@@H]1CN1CCCC1` [Compound 49, 2-[({4-[N-cyclopropyl-carboximidoyl]pyridin-2-yl}methyl)amino]-1-[(2R)-2-(pyrrolidin-1-ylmethyl)pyrrolidin-1-yl]ethan-1-one], the values for the IC50 at KDM5B (PLU-1) and at KDM3B (JMJD1B) were less than 250 nM and greater than 2500 nM, respectively.

Take `CC1CC1/N=C/c1ccnc(CNCC(=O)N(C)C)c1` (stereo not shown) [Compound 35, N,N-dimethyl-2-[({4-[N-(2-methylcyclopropyl)-carboximidoyl]pyridin-2-yl}methyl)amino]-acetamide]: the IC50 was 250 to 2500 nM on KDM5B (PLU-1) and greater than 2500 nM on KDM3B (JMJD1B).

With `CN(C)CCNCc1ccnc(CNCC(=O)N(C)C)c1` [Compound 15, 2-({[4-({[2-(dimethylamino)ethyl]-amino}methyl)pyridin-2-yl]methyl}amino)-N,N-dimethylacetamide], the IC50 is less than 250 nM on KDM5B (PLU-1) and greater than 2500 nM on KDM3B (JMJD1B).

With `O=C(CNCc1cc(/C=N/C2CC2)ccn1)NC1CCN(Cc2ccccc2)C1` (stereo not shown) [Compound 53, N-(1-benzylpyrrolidin-3-yl)-2-[({4-[N-cyclopropyl-carboximidoyl]pyridin-2-yl}methyl)amino]-acetamide], the IC50 on KDM5B (PLU-1) is less than 250 nM; on KDM3B (JMJD1B) it was greater than 2500 nM.

In the case of `CN(C)CCNCc1cc(C=O)ccn1` [Compound 110, 2-({[2-(dimethylamino)-ethyl]amino}methyl)-pyridine-4-carbaldehyde], the IC50 on KDM5B (PLU-1) was 250 to 2500 nM; on KDM3B (JMJD1B) it was greater than 2500 nM.

With `O=Cc1ccnc(CNCC(=O)N2CCC(Cc3ccccc3)CC2)c1` [Compound 106, 2-({[2-(4-benzylpiperidin-1-yl)-2-oxoethyl]-amino}methyl)-pyridine-4-carbaldehyde], the IC50 at KDM5B (PLU-1) was less than 250 nM; on KDM3B (JMJD1B), greater than 2500 nM.

In the case of `CN(CC(=O)N1CCCCC1)Cc1cc(C=O)ccn1` [Compound 120, 2-({methyl[2-oxo-2-(piperidin-1-yl)ethyl]amino}-methyl)pyridine-4-carbaldehyde], the concentration for half-maximal inhibition (IC50) at KDM5B (PLU-1) is greater than 2500 nM.

As for `CN(C)CCCCNCc1cc(C=O)ccn1` [Compound 108, 2-({[4-(dimethylamino)-butyl]amino}methyl)-pyridine-4-carbaldehyde], the half-maximal inhibitory concentration (IC50) is 250 to 2500 nM at KDM5B (PLU-1) and greater than 2500 nM on KDM3B (JMJD1B).

On to `c1ccc(CN2CCC[C@H]2CNCc2cc(CNCC3CC3)ccn2)cc1` [Compound 16, {[(2S)-1-benzylpyrrolidin-2-yl]methyl}[(4-{[(cyclopropylmethyl)-amino]methyl}pyridin-2-yl)methyl]amine], for which the values for the concentration for half-maximal inhibition (IC50) at KDM5B (PLU-1) and on KDM3B (JMJD1B) were 250 to 2500 nM and greater than 2500 nM, respectively.

`CCN(CC)CCCCNC(=O)CNCc1cc(/C=N/C2CC2)ccn1` [Compound 48, 2-[({4-[N-cyclopropyl-carboximidoyl]pyridin-2-yl}methyl)amino]-N-[4-(diethylamino)-butyl]acetamide]: the concentration for half-maximal inhibition (IC50) is less than 250 nM on KDM5B (PLU-1) and greater than 2500 nM on KDM3B (JMJD1B).

On to `CN1CCN(C(=O)CNCc2cc(/C=N/C3CC3)ccn2)CC1` [Compound 54, 2-[({4-[N-cyclopropyl-carboximidoyl]-pyridin-2-yl}methyl)amino]-1-(4-methylpiperazin-1-yl)ethan-1-one], for which the half-inhibitory concentration (IC50) is less than 250 nM at KDM5B (PLU-1) and 250 to 2500 nM on KDM3B (JMJD1B).

As to `CN(C)CCNCc1cc(CNC(C#N)C2CC2)ccn1` (stereo not shown) [Compound 21, 2-cyclopropyl-2-({[2-({[2-(dimethylamino)ethyl]-amino}methyl)pyridin-4-yl]methyl}amino)-acetonitrile], the IC50 at KDM5B (PLU-1) and at KDM3B (JMJD1B) was greater than 2500 nM each time.

Consider `CN(C)C(=O)CNCc1cc(CNCCF)ccn1` [Compound 14, 2-{[(4-{[(2-fluoroethyl)amino]-methyl}pyridin-2-yl)methyl]amino}-N,N-dimethylacetamide], for which the IC50 at KDM5B (PLU-1) was 250 to 2500 nM; at KDM3B (JMJD1B) it was greater than 2500 nM.

Regarding `C#CCN(C)C(=O)CNCc1cc(/C=N/C2CC2)ccn1` [Compound 56, 2-[({4-[N-cyclopropyl-carboximidoyl]-pyridin-2-yl}methyl)amino]-N-methyl-N-(prop-2-yn-1-yl)acetamide], the half-maximal inhibitory concentration (IC50) is 250 to 2500 nM on KDM5B (PLU-1) and greater than 2500 nM on KDM3B (JMJD1B).

Turning to `CCN1CCCC1CNC(=O)CNCc1cc(C=O)ccn1` (stereo not shown) [Compound 104, N-[(1-ethylpyrrolidin-2-yl)methyl]-2-{[(4-formylpyridin-2-yl)methyl]amino}-acetamide], the IC50 on KDM5B (PLU-1) is less than 250 nM; at KDM3B (JMJD1B), greater than 2500 nM.

As for `CCN(CCC#N)C(=O)CNCc1cc(/C=N/C2CC2)ccn1` [Compound 50, N-(2-cyanoethyl)-2-[({4-[N-cyclopropyl-carboximidoyl]-pyridin-2-yl}methyl)amino]-N-ethylacetamide], the IC50 at KDM5B (PLU-1) was less than 250 nM; at KDM3B (JMJD1B), greater than 2500 nM.

`CN(C)CCCCCNCc1cc(C=O)ccn1` [Compound 114, 2-({[5-(dimethylamino)-pentyl]amino}methyl)-pyridine-4-carbaldehyde]: the values for the IC50 on KDM5B (PLU-1) and at KDM3B (JMJD1B) were less than 250 nM and greater than 2500 nM, respectively.

For `CCN(CC)C(=O)CNCc1cc(C=O)ccn1` [Compound 105, N,N-diethyl-2-{[(4-formylpyridin-2-yl)methyl]amino}-acetamide], the half-maximal inhibitory concentration (IC50) on KDM5B (PLU-1) was 250 to 2500 nM; at KDM3B (JMJD1B), greater than 2500 nM.

For the molecule `CC1CCCCN1CCCNCc1cc(CNC2CC2)ccn1` (stereo not shown) [Compound 11, N-{[2-({[3-(2-methylpiperidin-1-yl)propyl]amino}methyl)-pyridin-4-yl]methyl}-cyclopropanamine], the IC50 was 250 to 2500 nM at KDM5B (PLU-1) and greater than 2500 nM at KDM3B (JMJD1B).

With `CCN(CC)CCCCNC(=O)CNCc1cc(C=O)ccn1` [Compound 112, N-[4-(diethylamino)-butyl]-2-{[(4-formylpyridin-2-yl)methyl]amino}-acetamide], the IC50 at KDM3B (JMJD1B) was greater than 2500 nM.

The values are drawn from US9650339B2, “Inhibitors of histone demethylases” (Gilead Sciences, Inc., priority 2013, dated 2017).
